Assays:
[1] = target: T1, human HPK1 (MAP4K1) (Homo sapiens, UniProt Q92918); assay: HPK1 inhibition assay (indirect ELISA); assay type: biochemical; details: GST-HPK1 0.6 nM, 12 μM ATP; read-out: IC50 Range HPK1
T1 construct: human HPK1 (aa 1-346); purchased Invitrogen PV6355
T1 sequence (Q92918 1-346): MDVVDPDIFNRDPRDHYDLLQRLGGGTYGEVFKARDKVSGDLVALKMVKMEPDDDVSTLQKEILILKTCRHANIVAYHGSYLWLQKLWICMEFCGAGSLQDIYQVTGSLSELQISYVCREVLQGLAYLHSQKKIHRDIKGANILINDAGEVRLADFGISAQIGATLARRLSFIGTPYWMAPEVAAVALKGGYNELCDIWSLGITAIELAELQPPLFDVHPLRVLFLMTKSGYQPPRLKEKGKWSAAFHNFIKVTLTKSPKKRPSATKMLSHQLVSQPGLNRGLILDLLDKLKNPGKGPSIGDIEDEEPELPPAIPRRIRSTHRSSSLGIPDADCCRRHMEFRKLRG
Outline: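 GST-tagged human HPK1 (aa 1-346, 0.6 nM) phosphorylated MBP-coated wells with 12 μM ATP in MOPS pH 7.2/Mg2+ buffer for 30 min after 15-min compound preincubation; phospho-Thr detected by antibody ELISA with TMB, 450 nm. Tested at 10 μM or 10-point titration (typically 50-0.1 μM); IC50 by 4-parameter logistic fit.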

[2] = target: T2, LCK (Homo sapiens, UniProt P06239); assay: LCK inhibition, FRET based Z'-LYTE Kinase Assay; assay type: biochemical; details: 25 nM LCK, 180 μM ATP; read-out: IC50 Range Lck
T2 construct: purchased Invitrogen P3043
T2 sequence (P06239 whole entry, species assumed): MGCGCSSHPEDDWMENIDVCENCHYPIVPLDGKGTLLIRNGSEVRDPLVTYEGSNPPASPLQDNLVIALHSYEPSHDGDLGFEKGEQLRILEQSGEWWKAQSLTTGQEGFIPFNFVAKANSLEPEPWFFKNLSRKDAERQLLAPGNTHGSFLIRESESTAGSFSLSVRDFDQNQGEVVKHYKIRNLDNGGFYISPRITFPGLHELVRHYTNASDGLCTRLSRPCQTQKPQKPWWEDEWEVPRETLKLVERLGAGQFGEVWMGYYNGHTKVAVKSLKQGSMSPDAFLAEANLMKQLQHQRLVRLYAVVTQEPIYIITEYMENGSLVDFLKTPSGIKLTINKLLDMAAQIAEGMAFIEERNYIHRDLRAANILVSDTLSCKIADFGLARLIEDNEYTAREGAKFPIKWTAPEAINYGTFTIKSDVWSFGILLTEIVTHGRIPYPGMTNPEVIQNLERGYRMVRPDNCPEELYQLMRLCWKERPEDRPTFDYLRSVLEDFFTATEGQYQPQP
Description: FLT3 and LCK compound inhibition were determined using FRET based Z′-LYTE Kinase Assay Kit with Tyrosine 2 peptide as the substrate (Invitrogen cat #PV3191). […] The % inhibition values were determined according to the manufacturer's directions and IC50 values were obtained using a non-linear 4 point logistic curve fit (XLfit4, IDBS).

[3] = tested on: CT26 WT colon carcinoma; assay: Syngeneic CT26 cell line xenograft model; assay type: in vivo; details: for Survival (tumour size <1500 mm^3 at day 21): 8 animals
Description: Six to eight week old female BALB/c mice were purchased from Jackson Laboratories and received and acclimated at the MaRS-TMDT Animal Resources Centre for 1 week prior to the start of the experiment. […] Mice were housed in microisolator cages and maintained in an environment with a 12 h light cycle at 20-22° C. and 40-60% humidity. On the day of implantation, CT26 cells were harvested and re-suspended with serum free RPMI1640 to a concentration of 1×10^7/mL and each mouse was injected subcutaneously with a volume of 0.1 mL containing 1×10^6 CT26 cells in the right rear flank. […] Toxicity was evaluated by body weight measurements and clinical observations. Tumour measurements and body weights were taken three times per week.
According to University Health Network (UHN) Animal Use Protocols (AUPs), mice in efficacy experiments should be sacrificed when the tumour size is above 1500 mm^3 or if the bodyweight of the animal decreases or if the animals are displaying clinical signs that require termination for humane reasons. […] A tumour size of <1500 mm^3 at day 21 was used as a cutoff to represent survival.

For `CN1CCN(c2ccc3nc(-c4c(N)c5ccsc5[nH]c4=O)[nH]c3c2)CC1` [Example A1, 4-amino-5-(6-(4-methylpiperazin-1-yl)-1H-benzo[d]imidazol-2-yl)thieno[2,3-b]pyridin-6(7H)-one], the IC50 [1] was at most 50 nM, the IC50 [2] was 50 to 500 nM and the “Tumour growth inhibition (TGI)” value ([3]; 75 mg/kg QD PO for 21 days, day 21, BALB/c mice) was 44%. The “Survival (tumour size <1500 mm^3 at day 21)” value (“Survival” below) ([3]; 75 mg/kg/day Example A1 arm) was 25%, the “Tumour growth inhibition (TGI)” value ([3]; 150 mg/kg QD PO Example A1 combined with 150 μg anti-PD-1 antibody IP day 0, 3, 6 and 10, day 21) was 86% and the “Tumour growth inhibition (TGI)” value ([3]; 150 mg/kg QD PO for 21 days, day 21, BALB/c mice) was 64%. For the same compound, the “Survival” value ([3]; 150 mg/kg/day Example A1 and anti-PD-1 arm) was 87.5%, the “Survival” value ([3]; 150 mg/kg/day Example A1 arm) was 37.5% and the “Tolerability (body weight, clinical signs)” value ([3]; 75 and 150 mg/kg QD PO 21 days, BALB/c mice, all animals gaining weight, none terminated due to clinical signs) was “well tolerated”.

From patent publication US11059832B2, “HPK1 inhibitors and methods of using same” (University Health Network, priority 2015, dated 2021)
